The results in this text go back to US10344017B2, “Pyrrolcarboxamide derivatives for the inhibition of ERK5” (CANCER RESEARCH TECHNOLOGY LIMITED, priority 2014, dated 2019).

In this test the target is T1, ERK5 (Homo sapiens, UniProt Q13164).
T1 construct: made in house
Briefly: ERK5 IMAP assay (fluorescence polarisation). It is filed as biochemical. The settings on record: average (e.g. geometric mean) where more than one data point; read-out: ERK5 IC50. The protocol:
The assay buffer was prepared using 0.01% Tween®-20 5× stock, supplied as part of IMAP™ FP Progressive Binding System Kit (Molecular Devices R7436) and diluted to 1× using miliQ H2O. 1 μL of a 1M DTT stock was added for every 1 mL of 1× assay buffer to give a final concentration of 1 mM DTT.
ERK5 was expressed and purified at CRT-DL by Leon Pang and Sue Young. Aliquots were stored at −80° C. The ERK5 working solution was used at a […] final dilution in assay buffer. […] For 1 plate, […] of ERK5 stock was added to 2262 μL of 1× assay buffer.
To prepare the IMAP™ binding solution for one plate 20.5 μL of IMAP™ binding reagent stock, 1476 μL of 1× binding buffer A (60%), and 984 μL of binding buffer B (40%) (IMAP™ FP Progressive screening express kit (Molecular Devices R8127) was added to 9819.5 μL of milliQ H2O.
1 μL of inhibitor (in 60:40 H2O/DMSO) or 60:40 H2O/DMSO (for controls and blanks) were dry-spotted into the relevant wells of a 384-well assay plate using the MATRIX PlateMate® Plus. 5 μL of ERK5 working solution was added to test and control wells, and 5 μL of 1× assay buffer added to blanks; 4 μL of ATP/substrate working solution was added to all wells using a Matrix multichannel pipette. The plate was sealed using DMSO resistant clear seal and incubated for 2 h at 37° C. 1 μL of the kinase reaction mixture from the first plate was dry spotted into a second 384-well assay plate using the MATRIX PlateMate® Plus. 9 μL of assay buffer was added, followed by 30 μL of IMAP™ binding solution using a multichannel pipette. The plate was incubated at RT in darkness for 2 h. The assay plate was then read on an Analyst HT plate reader (Molecular Devices) using the settings described below: […]

T1 sequence (Q13164 whole entry): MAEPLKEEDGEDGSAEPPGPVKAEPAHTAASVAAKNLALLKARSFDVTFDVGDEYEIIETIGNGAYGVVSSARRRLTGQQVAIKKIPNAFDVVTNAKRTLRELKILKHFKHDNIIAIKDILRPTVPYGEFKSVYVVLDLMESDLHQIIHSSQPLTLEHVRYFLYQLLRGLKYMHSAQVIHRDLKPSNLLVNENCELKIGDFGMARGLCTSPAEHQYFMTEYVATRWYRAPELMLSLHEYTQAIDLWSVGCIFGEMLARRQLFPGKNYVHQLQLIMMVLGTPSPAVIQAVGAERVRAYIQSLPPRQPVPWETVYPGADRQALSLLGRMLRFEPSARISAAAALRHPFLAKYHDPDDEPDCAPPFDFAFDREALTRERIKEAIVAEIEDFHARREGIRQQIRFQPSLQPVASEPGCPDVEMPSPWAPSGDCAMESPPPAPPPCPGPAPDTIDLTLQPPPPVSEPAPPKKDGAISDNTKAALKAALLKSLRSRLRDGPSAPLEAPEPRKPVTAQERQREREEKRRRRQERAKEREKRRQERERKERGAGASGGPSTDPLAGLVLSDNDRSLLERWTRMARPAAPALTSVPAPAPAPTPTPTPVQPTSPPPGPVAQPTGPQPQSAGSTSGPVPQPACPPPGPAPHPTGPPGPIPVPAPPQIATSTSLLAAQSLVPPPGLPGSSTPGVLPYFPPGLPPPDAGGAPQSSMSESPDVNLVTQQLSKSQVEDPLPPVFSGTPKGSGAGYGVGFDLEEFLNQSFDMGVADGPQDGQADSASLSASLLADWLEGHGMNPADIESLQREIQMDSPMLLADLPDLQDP

On to `Cc1ccc(F)c(C(=O)c2c[nH]c(C(=O)Nc3cncnc3)c2)c1Cl` [Example 176, 4-(2-Chloro-6-fluoro-3-methylbenzoyl)-N-(pyrimidin-5-yl)-1H-pyrrole-2-carboxamide], for which the IC50 (as a rule, the concentration that inhibits the measured activity by half) came out at 1180 nM.

As for `O=C(NC1CCNCC1)c1cc(C(=O)c2c(F)ccc(F)c2F)c[nH]1` [Example 208, N-(Piperidin-4-yl)-4-(2,3,6-trifluorobenzoyl)-1H-pyrrole-2-carboxamide], the IC50 amounted to 611 nM. As to `CN1CCC(NC(=O)c2cc(C(=O)c3c(F)cccc3Br)c[nH]2)CC1` [Example 195, 4-(2-Bromo-6-fluorobenzoyl)-N-(1-methylpiperidin-4-yl)-1H-pyrrole-2-carboxamide], the half-inhibitory concentration (IC50) was determined as 289 nM. Turning to `O=C(Nc1cncnc1)c1cc(C(=O)c2c(Cl)ccc(Br)c2F)c[nH]1` [Example 182, 4-(3-Bromo-6-chloro-2-fluorobenzoyl)-N-(pyrimidin-5-yl)-1H-pyrrole-2-carboxamide], the 50% inhibitory concentration (IC50) came to 606 nM. With `CCc1ncccc1NC(=O)c1cc(C(=O)c2c(F)cccc2Cl)c[nH]1` [Example 76, 4-(2-Chloro-6-fluorobenzoyl)-N-(2-ethylpyridin-3-yl)-1H-pyrrole-2-carboxamide], the IC50 worked out at 1580 nM. With `CNc1ncc(NC(=O)c2cc(C(=O)c3c(F)cccc3Cl)c[nH]2)cn1` [Example 12, 4-(2-Chloro-6-fluorobenzoyl)-N-(2-(methylamino)pyrimidin-5-yl)-1H-pyrrole-2-carboxamide], the IC50 came out at 1750 nM. The result for `COc1ncccc1NC(=O)c1cc(C(=O)c2c(Cl)ccc(Cl)c2F)c[nH]1` [Example 84, 4-(3,6-Dichloro-2-fluorobenzoyl)-N-(2-methoxypyridin-3-yl)-1H-pyrrole-2-carboxamide] reads 1180 nM. Consider `O=C(NC1CCNCC1)c1cc(C(=O)c2cc(F)ccc2F)c[nH]1` [Example 226, 4-(2,5-Difluorobenzoyl)-N-(piperidin-4-yl)-1H-pyrrole-2-carboxamide], for which the half-maximal inhibitory concentration (IC50) worked out at 8560 nM. For the compound `C=Cc1ccc(F)c(C(=O)c2c[nH]c(C(=O)Nc3cccnc3)c2)c1F` [Example 165, 4-(2,6-Difluoro-3-vinylbenzoyl)-N-(pyridin-3-yl)-1H-pyrrole-2-carboxamide], the IC50 came to 1580 nM.

In the case of `Cc1ncc(NC(=O)c2cc(C(=O)c3c(F)cccc3Br)c[nH]2)cn1` [Example 155, 4-(2-Bromo-6-fluorobenzoyl)-N-(2-methylpyrimidin-5-yl)-1H-pyrrole-2-carboxamide], the IC50 came out at 1190 nM. For `O=C(Nc1cccnc1)c1cc(C(=O)c2c(Cl)ccc(F)c2F)c[nH]1` [Example 221, 4-(6-Chloro-2,3-difluorobenzoyl)-N-(pyridin-3-yl)-1H-pyrrole-2-carboxamide], the IC50 is 713 nM.

As for `Cc1cccc(F)c1C(=O)c1c[nH]c(C(=O)Nc2ccncc2)c1` [Example 185, 4-(2-Fluoro-6-methylbenzoyl)-N-(pyridin-4-yl)-1H-pyrrole-2-carboxamide], the IC50 turned out to be 1900 nM. Consider `Cc1cc(NC(=O)c2cc(C(=O)c3c(F)cccc3Br)c[nH]2)ccn1` [Example 137, 4-(2-Bromo-6-fluorobenzoyl)-N-(2-methylpyridin-4-yl)-1H-pyrrole-2-carboxamide], for which the IC50 worked out at 1080 nM. For the compound `Cc1ncccc1NC(=O)c1cc(C(=O)c2c(Cl)ccc(Cl)c2F)c[nH]1` [Example 81, 4-(3,6-Dichloro-2-fluorobenzoyl)-N-(2-methylpyridin-3-yl)-1H-pyrrole-2-carboxamide], the IC50 was found to be 394 nM.

Regarding `COc1ccc(Cl)c(C(=O)c2c[nH]c(C(=O)Nc3ccc(CN4CCNCC4)nc3)c2)c1F` [Example 251, 4-(6-Chloro-2-fluoro-3-methoxybenzoyl)-N-(6-(piperazin-1-ylmethyl)pyridin-3-yl)-1H-pyrrole-2-carboxamtde], the half-maximal inhibitory concentration (IC50) is 7.9 nM. For the compound `COc1ccc(Cl)c(C(=O)c2c[nH]c(C(=O)Nc3cnn(Cc4ccccn4)c3)c2)c1F` [Example 65], the IC50 came to 53.8 nM.

As for `CN1CCC(NC(=O)c2cc(C(=O)c3c(F)ccc(F)c3F)c[nH]2)CC1` [Example 209, N-(1-Methylpipendin-4-yl)-4-(2,3,6-trifluorobenzoyl)-1H-pyrrole-2-carboxamide], the IC50 worked out at 569 nM. With `Cc1cccc(F)c1C(=O)c1c[nH]c(C(=O)Nc2cccnc2)c1` [Example 186, 4-(2-Fluoro-6-methylbenzoyl)-N-(pyridin-3-yl)-1H-pyrrole-2-carboxamide], the IC50 worked out at 2570 nM. `O=C(Nc1cncnc1)c1cc(C(=O)c2c(Cl)ccc(F)c2F)c[nH]1` [Example 222, 4-(6-Chloro-2,3-difluorobenzoyl)-N-(pyrimidin-5-yl)-1H-pyrrole-2-carboxamide]: the IC50 amounted to 554 nM. The result for `CCn1cc(NC(=O)c2cc(C(=O)c3c(Cl)ccc(Cl)c3F)c[nH]2)cn1` [Example 46, 4-(3,6-Dichloro-2-fluorobenzoyl)-N-(1-ethyl-1H-pyrazol-4-yl)-1H-pyrrole-2-carboxamide] reads 66.5 nM; that for `CCCc1ncccc1NC(=O)c1cc(C(=O)c2c(Cl)ccc(Cl)c2F)c[nH]1` [Example 83, 4-(3,6-Dichloro-2-fluorobenzoyl)-N-(2-propylpyridin-3-yl)-1H-pyrrole-2-carboxamide], 3540 nM. On to `O=C(NC1CCOCC1)c1cc(C(=O)c2c(F)cccc2Cl)c[nH]1` [Example 194, 4-(2-Chloro-6-fluorobenzoyl)-N-(tetrahydro-2H-pyran-4-yl)-1H-pyrrole-2-carboxamide], for which the IC50 was determined as 845 nM.

`O=C(Nc1cncnc1)c1cc(C(=O)c2cc(Cl)ccc2F)c[nH]1` [Example 229, 4-(5-Chloro-2-fluorobenzoyl)-N-(pyrimidin-5-yl)-1H-pyrrole-2-carboxamide]: the IC50 is 2060 nM. Regarding `Cc1ccc(F)c(C(=O)c2c[nH]c(C(=O)NC3CCN(C)CC3)c2)c1Cl` [Example 177, 4-(2-Chloro-6-fluoro-3-methylbenzoyl)-N-(1-methylpiperidin-4-yl)-1H-pyrrole-2-carboxamide], the IC50 was determined as 472 nM. To `Cn1cc(NC(=O)c2cc(C(=O)c3c(Cl)ccc(OC4CCOCC4)c3F)c[nH]2)cn1` [Example 268, 4-(6-Chloro-2-fluoro-3-((tetrahydro-2H-pyran-4-yl)oxy)benzoyl)-N-(1-methyl-1H-pyrazol-4-yl)-1H-pyrrole-2-carboxamide] belongs 2800 nM. As to `CN1CCN(c2cc(NC(=O)c3cc(C(=O)c4c(F)cccc4Cl)c[nH]3)ccn2)CC1` [Example 36, 4-(2-Chloro-6-fluorobenzoyl)-N-(2-(4-methylpiperazin-1-yl)pyridin-4-yl)-1H-pyrrole-2-carboxamide], the IC50 was determined as 137 nM.

For `O=C(Nc1cccnc1)c1cc(C(=O)c2c(F)cccc2C2CC2)c[nH]1` [Example 202, 4-(2-Cyclopropyl-6-fluorobenzoyl)-N-(pyridin-3-yl)-1H-pyrrole-2-carboxamide], the IC50 came to 23000 nM.

Consider `O=C(NC1CCN(C(=O)C(F)(F)F)CC1)c1cc(C(=O)c2c(Cl)ccc(Cl)c2F)c[nH]1` [Example 11, 4-(3,6-Dichloro-2-fluorobenzoyl)-N-(1-(2,2,2-trifluoroacetyl)piperidin-4-yl)-1H-pyrrole-2-carboxamide], for which the IC50 worked out at 521 nM. As for `COCCn1cc(NC(=O)c2cc(C(=O)c3c(Cl)ccc(OC)c3F)c[nH]2)cn1` [Example 63, 4-(6-Chloro-2-fluoro-3-methoxybenzoyl)-N-(1-(2-methoxyethyl)-1H-pyrazol-4-yl)-1H-pyrrole-2-carboxamide], the IC50 came out at 104 nM.
